We go through 91 compounds from a melting point compilation (Tetko et al.; mined from patent text by program, amines drawn as free bases though some values may be those of a salt).

With `Oc1cc(Cl)cc(Br)c1`, the melting point lay in the range of 66 to 68 °C.

In the case of `COc1cc(OC)nc(CN2C(=O)C3(COc4cc5c(cc43)OCCO5)c3ccccc32)n1` (stereo unspecified), the melting point lay within 169 to 170 °C.

`NS(=O)(=O)c1ccc(NCC(=O)Nc2ccccc2)cc1` registered a melting point of 257 to 258 °C.

On to `CCCCC(C(=O)NO)S(=O)(=O)c1ccc(OC)cc1` (stereo unspecified), for which the melting point stood at 130 °C.

Consider `Clc1ccc(/C=C/c2cc(Cl)cc(Cl)c2)cc1`, for which the melting point lay in the range of 94 to 96 °C.

Consider `COc1ccc(OCC(C)Oc2ccc(OC)cc2)cc1` (stereo unspecified), for which the melting point was 84 to 84.5 °C.

Compound `CN(C)C(=O)c1c(F)cccc1I` displayed a melting point of 86 to 89 °C.

`CC(N)C(=O)N1CC(=O)N(CC(N)=O)C1(C)C` (stereo unspecified): the melting point lay in the range of 196 to 197 °C.

In the case of `CCOC(=O)COc1ccc2c(c1[N+](=O)[O-])C(=O)CC2`, the melting point was in the range of 137 to 139 °C.

Consider `Brc1ccc(C2CCCc3cncn32)cc1` (stereo unspecified), for which the melting point amounted to 216 °C.

As for `CS(=O)(=O)Nc1cccc(Nc2nc(NCCN3CCOCC3)c3nc[nH]c3n2)c1`, the melting point lay in the range of 233 to 237 °C.

Turning to `CC(C)(C)OC(=O)NCc1cccc(C#N)n1`, the melting point lay in the range of 85.9 to 86.5 °C.

Turning to `C=CCOc1ccc(C#N)c(OC(C(=O)OC)c2ccccc2C)c1` (racemic), the melting point lay within 98 to 99 °C.

Consider `CCOC(=O)c1ccc(-c2nc(COc3ccc(COc4nn(-c5ccccc5)cc4/C=C\c4csc(CC)n4)cc3OC)c(C)o2)o1`, for which the melting point fell in the range of 133 to 135 °C.

With `Cc1cccc(Nc2nnc(Cc3ccncc3)c3ccccc23)c1`, the melting point lay in the range of 141 to 143 °C.

`COc1cc(C)nc(NC(=O)NS(=O)(=O)c2cccc3c2S(=O)(=O)C(C)(C)S3(=O)=O)n1` gave a melting point of 191 to 200 °C.

For `COc1ccc(-c2ccc(C=NO)cc2)cc1OC1CCCC1`, the melting point is 153 °C.

Regarding `COCOc1ccc(C=O)c2cccc(C)c12`, the melting point lay in the range of 42 to 43 °C.

Consider `O=C1CCC(N2C(=O)c3cccc(CNC(=O)c4cc(Cl)cnc4Cl)c3C2=O)C(=O)N1` (stereo unspecified), for which the melting point is over 260 °C.

In turn, `Cn1c(C(F)(F)F)cc(C#N)c1-c1ccc(Cl)c(Cl)c1` showed a melting point of 130 °C.

Turning to `COC(=O)c1ccc(C(=O)Nc2ccc(-n3nc(C(F)(F)F)cc3C(F)(F)F)cc2)cc1`, the melting point is 195 to 196 °C.

`CCOC(=O)C1=C(C)N(C(C)=O)C(c2csc(C)n2)=NC1c1cccc(OC)c1` (stereo unspecified) yielded a melting point of 114 to 116 °C.

The compound `CCOC(=O)c1sc(Oc2ccc(Cl)cc2Cl)nc1C` displayed a melting point of 71 to 73 °C.

Regarding `Cc1ccc(-c2cc(N3CCCC3)c(C#N)c3c2-c2ccccc2C3)cc1`, the melting point was in the range of 182 to 184 °C.

Consider `CC(C)n1c(=O)[nH]c(C(F)(F)F)c(Br)c1=O`, for which the melting point is 149 to 150 °C.

The compound `CC1(C)OC(C(F)(F)F)Nc2ccc(-c3cccc(Cl)c3)cc21` (stereo unspecified) displayed a melting point of 108 to 109 °C.

Take `COc1cc(OC)nc(OC)c1`: the melting point was 47 to 49 °C.

Turning to `O=c1[nH]cc2n1-c1ccc(Cl)cc1C(c1ccccc1F)=NC2`, the melting point was in the range of 247 to 250 °C.

`Cc1nnc(-c2ccc3occ(-c4cccc(CO)c4)c3c2)o1`: the melting point fell in the range of 115 to 116 °C.

In turn, `S=C=Nc1ccc(Cl)c(Cl)c1` came in with a melting point of 111 to 113 °C.

In turn, `CCc1ccc(C(=O)O)c(N)c1` yielded a melting point of 117 to 120 °C.

`CC#CC(C)(C)N(C)C(=O)C(CC)Oc1cncc(Cl)c1` (stereo unspecified) yielded a melting point of 67 to 68 °C.

The compound `N#Cc1ccc(Oc2ccccc2)cn1` returned a melting point of 84 to 85 °C.

As for `O=C(O)COC(=O)c1c(Cl)cccc1Cl`, the melting point fell in the range of 180 to 182 °C.

Take `O=c1[nH]ncc(N2CCN(C34CC5CC(CC(C5)C3)C4)CC2)c1Cl`: the melting point lay in the range of 292 to 294 °C.

Compound `O=C(c1cccs1)c1cnn2c(-c3cccc(N(C(=O)c4c(Cl)cccc4Cl)C(=O)c4c(Cl)cccc4Cl)c3)ccnc12` came in with a melting point of 238 to 240 °C.

`CCCOc1ccc(S(=O)(=O)N(C)C)cc1-c1ccc(C#N)c(=O)[nH]1` registered a melting point of 225 to 226 °C.

In turn, `CN(C)C(=O)c1cccnc1S(=O)(=O)Cl` registered a melting point of 114 to 117 °C.

Compound `O=[N+]([O-])c1ccc(Sc2ncc[nH]2)cc1` registered a melting point of 207 to 209 °C.

`CN1CCC(Nc2ccccc2C(=N)c2ccccc2)CC1` registered a melting point of 117 to 118 °C.

Take `CCc1cc(=O)c2c([nH]1)CCCN2C(=O)C(F)(F)F`: the melting point lay in the range of 271 to 274 °C.

`Nc1ncccc1OCc1c(F)ccc(F)c1F`: the melting point fell in the range of 108 to 110 °C.

`COC(=O)C1=C(C)NC(C)=C(C(=O)OCC2CC2)C1c1cccc([N+](=O)[O-])c1` (stereo unspecified) yielded a melting point of 160 to 163 °C.

In the case of `CC1(C)CC(N2C(=O)C=CC2=O)CC(C)(C)N1OC1CCCCC1`, the melting point lay in the range of 135 to 139 °C.

For the compound `OCCc1ccc(OCc2ccc3ccccc3n2)cc1`, the melting point is 145 °C.

Regarding `Cc1nc(-c2ccc(Cl)cc2)c(CC(Cl)C(=O)O)o1` (stereo unspecified), the melting point lay in the range of 208 to 209 °C.

Regarding `O=C(O)CCC(O)c1ccc(CCNS(=O)(=O)c2ccc(Cl)cc2)cc1` (stereo unspecified), the melting point is 191 °C.

Regarding `CC(O)C(C)(C)c1cc(Cn2cncn2)cc(C(C)(C)C#N)c1` (stereo unspecified), the melting point lay in the range of 83 to 84 °C.

In turn, `COc1ccc(C=CC(=O)NCCc2ccc(OC(C)(C)C(=O)O)cc2)cc1` had a melting point of 158 to 159 °C.

Compound `COc1cc2c(Nc3cccc(N(C)C)c3)c(C#N)cnc2c(OC)c1OC` came in with a melting point of 142 to 144 °C.

Take `CCCC(=O)Cc1ccc(C(=O)Nc2ccc3cc(CN4CCCC4)cnc3c2C)cc1`: the melting point lay in the range of 139 to 140 °C.

Turning to `Cc1cc(CO)c2cccc(OCc3ccccc3)c2n1`, the melting point is 137 to 141 °C.

`O=C(Nc1cc(CN2CCOCC2)c(O)c(CN2CCOCC2)c1)c1ccccc1` gave a melting point of 152 to 154 °C.

Consider `O=c1[nH]c2cc(Cl)ccc2c(O)c1-c1cccc(S(=O)(=O)c2ccccc2)c1`, for which the melting point was 260 °C.

The compound `Cc1cc(C)cc(Sc2[nH]c(C)nc2CO)c1` gave a melting point of 199 to 201 °C.

In the case of `Cc1c(-c2ccc(O)cc2)n(Cc2ccc(OCCN3CCCCCC3)cc2)c2ccc(O)cc12`, the melting point lay within 168 to 171 °C.

As for `Cc1ccc(SC(Cl)=C(C(Cl)=C(Cl)Cl)[N+](=O)[O-])cc1`, the melting point was in the range of 110 to 111 °C.

On to `COc1ccc(C(=O)N2CCN(CCc3ccc(Cl)cc3)CC2)cc1`, for which the melting point was in the range of 105 to 106 °C.

`C=CCc1cc2c(c(CC=C)c1O)NC(=O)CO2` yielded a melting point of 114 to 115 °C.

On to `CCS(=O)(=O)ON=C(Cl)c1ccc(F)cc1`, for which the melting point fell in the range of 39 to 41.5 °C.

In the case of `CN(C)Cc1ccc(SC2CCN(C(=O)OCc3ccccc3)CC2)cc1`, the melting point came out at 144 °C.

On to `CN(C)CCNc1nc(C2C(=O)Nc3ccc(Br)cc32)c2cn(C)nc2n1` (stereo unspecified), for which the melting point was in the range of 279 to 289 °C.

The compound `CC(C)C(C)CCC(C)C1CCC2C3CCC4CCCCC4(C)C3CCC12C` (stereo unspecified) registered a melting point of 136 to 137 °C.

Turning to `C=CCC(CCC(CC=C)(C(=O)c1ccc(NCCO)cc1)N(C)C)(C(=O)c1ccc(NCCO)cc1)N(C)C` (stereo unspecified), the melting point lay in the range of 95 to 96 °C.

Compound `CS(=O)(=O)c1nnc(-c2ccnc(Nc3cccc(C(F)(F)F)c3)c2)o1` had a melting point of 105 to 106 °C.

Regarding `CCCCCCCCCCCc1cc2ccc(C(=O)OCC(O)CO)cc2[nH]1` (racemic), the melting point was in the range of 110 to 112 °C.

Turning to `O=C(O)c1c2c(nc3ccc(Br)cc13)-c1ccc(-c3ccccc3F)cc1CCC2`, the melting point is over 300 °C.

Take `CC(C)CN(Cc1csc(C(C)C)n1)C(=O)N[C@H](C(=O)N[C@@H](Cc1ccccc1)C[C@H](O)[C@H](Cc1ccccc1)NC(=O)OCc1cncs1)C(C)C`: the melting point fell in the range of 60 to 61 °C.

`C=CCN1CCC23CC(=O)CCC2C1Cc1cccc(OC)c13` (stereo unspecified) registered a melting point of 84 to 86 °C.

Consider `CCCCc1nccn1Cc1ccc2oc(-c3ccccc3C(=O)O)c(Br)c2c1`, for which the melting point lay within 138 to 145 °C.

As for `Clc1cc(Cl)cc(Oc2cccc(-c3nnc(Nc4ccc(Cl)c(Cl)c4)s3)c2)c1`, the melting point is 242 to 243 °C.

As for `O=C(O)C1=Cc2cc(Br)cc(F)c2OC1C(F)(F)F` (stereo unspecified), the melting point was in the range of 206 to 208 °C.

In turn, `COc1cc2ncnc(N3CCN(C(=O)Nc4ccc(OC(C)C)cc4)CC3)c2cc1OC` had a melting point of 220 to 222 °C.

The compound `CC(C)CCCC(=S)SCC(C)C` came in with a melting point of 43 to 44 °C.

Take `O=C1c2ccccc2-c2c1c1ccccc1c(=O)n2CCCCCCCCCCCNS(=O)(=O)c1ccccc1`: the melting point was in the range of 170 to 172 °C.

For `Cc1nc(N(C)Cc2ccco2)c2nc(-c3ccccc3)cc-2[nH]1`, the melting point lay within 168 to 169 °C.

As for `Cc1c(O)cc2c(c1C)CCC2c1c[nH]cn1` (stereo unspecified), the melting point lay in the range of 198 to 202 °C.

In the case of `O=c1oc2cc(Cl)cnc2n1CCl`, the melting point lay within 105 to 107 °C.

In the case of `Oc1ccc(Cc2nc(-c3cccs3)c[nH]2)cc1`, the melting point is 189 to 191 °C.

`COc1cc(C=CC=O)ccc1OC(C)C`: the melting point lay within 93 to 94 °C.

With `O=[N+]([O-])c1cccc(S(=O)(=O)C(CCl)Sc2ccccc2)c1` (stereo unspecified), the melting point is 126 °C.

Consider `CC(=O)OC1(C(N)=O)CCCc2cc(C)cnc21` (stereo unspecified), for which the melting point was found to be 205 °C.

The compound `CN(C)CCCOc1ccc(-c2nnc(-c3ccc(Oc4ccccc4)cc3)o2)cc1` came in with a melting point of 95 °C.

As for `O=S(=O)(c1ccccc1)n1c2cc(O)c(O)cc2c2cc(O)c(O)cc21`, the melting point lay in the range of 240 to 241 °C.

Compound `O=C(NCO)C(Nc1ccccc1[N+](=O)[O-])c1c(Cl)cccc1Cl` (stereo unspecified) registered a melting point of 175 °C.

Compound `O=CNc1ccc(Br)c(Cl)c1` registered a melting point of 110 to 113 °C.

For the compound `O=[N+]([O-])c1cccc2c1sc1c(Nc3cccc(Br)c3)ncnc12`, the melting point fell in the range of 247 to 248 °C.

In turn, `O=C(O)C[C@H](NC(=O)OCc1ccccc1)C(=O)Nc1cc(Cc2n[nH]c(=O)c3ccccc23)ccc1F` came in with a melting point of 188 to 190 °C.

`CCOC(=O)c1ccc2c(c1)C=C(n1ccnc1)CC2` came in with a melting point of 113 to 116 °C.

In turn, `CC(=O)Nc1ccc(OCC(O)CNC(C)(C)C)c(-c2nnco2)c1` (stereo unspecified) had a melting point of 157 to 160 °C.

`CCN(CC)CC(=O)Nc1ccc(NC(=O)CN(CC)CC)c2c1C(=O)c1ccccc1C2=O`: the melting point fell in the range of 85 to 86 °C.

What is called melting point is the temperature, or range, at which the solid turns liquid.
